Biological target: Serine/threonine-protein kinase B-raf (Homo sapiens, UniProt P15056)
Assay: Inhibition of human recombinant his6-tagged B-Raf expressed in Sf9 cells assessed as inhibition of MEK1 phosphorylation after 60 mins

Sequence of Serine/threonine-protein kinase B-raf (P15056 whole entry): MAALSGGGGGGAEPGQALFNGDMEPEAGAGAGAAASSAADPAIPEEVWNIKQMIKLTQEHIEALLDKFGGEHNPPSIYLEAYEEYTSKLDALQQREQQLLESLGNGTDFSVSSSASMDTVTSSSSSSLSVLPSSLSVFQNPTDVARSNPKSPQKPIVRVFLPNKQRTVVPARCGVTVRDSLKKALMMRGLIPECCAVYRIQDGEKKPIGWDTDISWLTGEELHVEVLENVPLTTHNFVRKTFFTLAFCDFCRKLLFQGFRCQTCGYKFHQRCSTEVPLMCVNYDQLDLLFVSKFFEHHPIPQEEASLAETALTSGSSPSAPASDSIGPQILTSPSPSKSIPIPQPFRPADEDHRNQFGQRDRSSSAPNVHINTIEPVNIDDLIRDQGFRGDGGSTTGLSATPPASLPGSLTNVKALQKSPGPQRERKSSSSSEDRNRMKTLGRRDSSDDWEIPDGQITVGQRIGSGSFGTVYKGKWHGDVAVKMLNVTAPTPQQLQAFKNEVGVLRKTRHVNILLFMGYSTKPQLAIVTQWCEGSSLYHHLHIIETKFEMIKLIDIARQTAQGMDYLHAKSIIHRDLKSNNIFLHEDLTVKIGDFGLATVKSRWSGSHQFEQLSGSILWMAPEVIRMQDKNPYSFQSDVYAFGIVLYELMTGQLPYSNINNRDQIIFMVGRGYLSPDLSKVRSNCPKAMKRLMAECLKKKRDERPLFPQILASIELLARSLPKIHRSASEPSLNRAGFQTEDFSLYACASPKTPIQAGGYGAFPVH

| IC50 [nM] | Compound |
| --- | --- |
| 117 | O=C(Nc1cccc(Nc2cc3c(cc2Cl)C(=O)NC3=O)c1)c1cccc(Cl)c1 |
| 35 | O=C(Nc1cccc(Nc2cc3c(cc2Cl)C(=O)NC3=O)c1)c1cccc(Br)c1 |
| 8 | O=C(Nc1cccc(Nc2cc3c(cc2Cl)C(=O)NC3=O)c1)c1cccc(I)c1 |
| 10 | O=C(Nc1cccc(Nc2cc3c(cc2Cl)C(=O)NC3=O)c1)c1cccc(C(F)(F)F)c1 |
| 6 | O=C(Nc1cccc(Nc2cc3c(cc2Cl)C(=O)NC3=O)c1)c1cccc(OC(F)(F)F)c1 |
| 297 | N#Cc1cccc(C(=O)Nc2cccc(Nc3cc4c(cc3Cl)C(=O)NC4=O)c2)c1 |
| 349 | Cn1nc(C(C)(C)C)cc1C(=O)Nc1cccc(Nc2cc3c(cc2Cl)C(=O)NC3=O)c1 |
| 35 | O=C(Nc1cccc(Nc2cc3c(=O)[nH][nH]c(=O)c3cc2Cl)c1)c1cccc(Cl)c1 |
| 19 | O=C(Nc1cccc(Nc2cc3c(=O)[nH][nH]c(=O)c3cc2Cl)c1)c1cccc(Br)c1 |
| 8 | O=C(Nc1cccc(Nc2cc3c(=O)[nH][nH]c(=O)c3cc2Cl)c1)c1cccc(I)c1 |

The remaining lines, values behind:

| Compound | IC50 [nM] |
| --- | --- |
| NC(=O)c1ccc2[nH]cc(-c3cccc(O)c3)c2c1 | > 10000 |
| O=C1NC(=O)c2cc3c(-c4cccc(O)c4)c[nH]c3cc21 | 3470 |
| O=C1NC(=O)c2cc(Nc3cccc(O)c3)c(Nc3cccc(O)c3)cc21 | 338 |
| O=C1NC(=O)c2cc(Nc3cccc(O)c3)c(Nc3ccccc3)cc21 | 1680 |
| O=c1[nH][nH]c(=O)c2cc(Nc3cccc(O)c3)c(Nc3ccccc3)cc12 | 3770 |
| O=c1[nH][nH]c(=O)c2cc(Nc3cccc(O)c3)c(Nc3cccc(O)c3)cc12 | 290 |
| O=C(Nc1cccc(Nc2cc3c(=O)[nH][nH]c(=O)c3cc2Cl)c1)c1cccc(C(F)(F)F)c1 | 17 |
| O=C(Nc1cccc(Nc2cc3c(=O)[nH][nH]c(=O)c3cc2Cl)c1)c1cccc(OC(F)(F)F)c1 | 18 |
| N#Cc1cccc(C(=O)Nc2cccc(Nc3cc4c(=O)[nH][nH]c(=O)c4cc3Cl)c2)c1 | 296 |
| Cn1nc(C(C)(C)C)cc1C(=O)Nc1cccc(Nc2cc3c(=O)[nH][nH]c(=O)c3cc2Cl)c1 | 293 |

From ChEMBL document CHEMBL1921694, “Structure-based design of isoindoline-1,3-diones and 2,3-dihydrophthalazine-1,4-diones as novel B-Raf inhibitors” (Bioorg Med Chem Lett, 2011)
